Laboratory results: US11197908B2, “Peptoids and methods for attenuating inflammatory response” (THE BOARD OF TRUSTEES OF THE UNIVERSITY OF ARKANSAS, priority 2018, dated 2021)
Where a SMILES comes first, the peptide text is derived from it. [ ]: non-standard residue; d: D form. Nphe = O=C(O)CNCc1ccccc1; NPrGly = CCCNCC(=O)O; Nlys = NCCCCNCC(=O)O

How the values were obtained:
RAGE [1] = assay: RAGE upregulation in THP-1 macrophages co-incubated with peptoid and low-dose LPS (confocal imaging); format: cell-based, human; conditions: 3 days
Method: (§1) THP-1 monocytes were differentiated into macrophages through exposure to phorbol 12-myristate 13-acetate (PMA) for three days prior to experimentation 10. […] Upon differentiation, these cells were then incubated (3 days) with media containing JPT1a (50, 10, or 2 μM) alone or JPT1a (50, 10, or 2 μM) in the presence of low-dose (2 ng/mL) lipopolysaccharide (LPS) as a chronic pro-inflammatory stimulus 11. Treatment with 2 ng/mL LPS alone served as a positive control, while treatment with an equivalent volume of buffer diluted into media served as the vehicle. Cellular supernatant was harvested on day 3 12; these samples were immediately centrifuged at 1200 rpm for 10 min at 25° C. to remove any cells or debris. The top 80% of this volume was subsequently removed and stored at −80° C. for later assessment of cytokines via ELISA. Cells were fixed and stained for RAGE, phalloidin (cytoplasmic marker), and DAPI (nuclear marker) 13. Each channel was imaged with a Zeiss LSM 510 META Confocal Scanning Laser Microscope using a plan-neofluar 40×/1.3 oil DIC immersion objective; three of these multi-channel images were obtained from each slide in each experiment 14. All multi-channel images were converted to TIFF file format via ImageJ64 software for quantitative image analysis using a custom subroutine written in Matlab™ software to obtain the average RAGE expression per volume of cells, and the data generated was assessed for statistical significance using GraphPad Prism 7.0 software 15.
Images acquired via confocal microscopy were analyzed via custom MATLAB™ subroutine to determine the average quantity of RAGE present within a given volume of cells. Results within each experiment are normalized to the positive control (2 ng/mL LPS alone), indicated by the dashed line at 1. Significance relative to positive control is indicated as ** p<0.01. Error bars indicate SEM, n=4.
Images acquired via confocal microscopy were analyzed via custom MATLAB™ subroutine to determine the average quantity of RAGE present within a given volume of cells. Results within each experiment are normalized to the positive control (2 ng/mL LPS alone), indicated by the dashed line at 1.0. Error bars indicate SEM, n=2.

IL-1β = IL-1β in supernatant of THP-1 macrophages co-incubated with peptoid and LPS (ELISA); format: cell-based, human; conditions: peptoid 50 μM with 2 ng/mL LPS, 3 days; vs LPS alone
Method: as §1, with “The top 80% of this volume was subsequently removed and stored at −80° C. for later assessment of cytokines via ELISA. Cells were fixed and stained for RAGE, phalloidin (cytoplasmic marker), and DAPI (nuclear marker) 13. Each channel was imaged with a Zeiss LSM 510 META Confocal Scanning Laser Microscope using a plan-neofluar 40×/1.3 oil DIC immersion objective; three of these multi-channel images were obtained from each slide in each experiment 14.” left out
(§2) As shown in FIGS. 2B-2D, THP-1 macrophages were treated with JPT1a alone (white) or in the presence of a chronic low-dose (2 ng/mL) of LPS (grey), for 3 days prior to supernatant harvest and storage. Examination of the supernatant via ELISA determined the concentrations of (FIG. 2B) IL-1β, (FIG. 2C) IL-6, and (FIG. 2D) IL-8. […]

IL-6 = IL-6 in supernatant of THP-1 macrophages co-incubated with peptoid and LPS (ELISA); format: cell-based, human; conditions: peptoid 50 μM with 2 ng/mL LPS, 3 days; vs LPS alone
Method: as §1, with “Each channel was imaged with a Zeiss LSM 510 META Confocal Scanning Laser Microscope using a plan-neofluar 40×/1.3 oil DIC immersion objective; three of these multi-channel images were obtained from each slide in each experiment 14.” left out
as §2
As shown in FIGS. 5B-5D, THP-1 macrophages were treated with JPT1 alone (white) or in the presence of a chronic low-dose (2 ng/mL) of LPS (grey), for 3 days prior to supernatant harvest and storage. Examination of the supernatant via ELISA determined the concentrations of (FIG. 5B) IL-1β, (FIG. 5C) IL-6, and (FIG. 5D) IL-8. […]

RAGE [2] = target: RAGE (Homo sapiens, UniProt Q15109); assay: RAGE binding to peptoid-coated 96-well plates, Scatchard plot; conditions: plates coated with 500 nM peptoid; JPT1a n=3 average, JPT1 n=1
Method: As shown in FIGS. 7A-7D, 96-well plates coated with 500 nM JPT1a were treated with concentrations of RAGE (FIG. 7A) or E-cadherin (FIG. 7B) ranging from 1 to 500 nM. Values are reported as the average concentration of bound protein determined from all experiments. Error bars indicate SEM, n=2-5. […] In FIG. 7D, 96-well plates coated with 500 nM JPT1 were treated with concentrations of RAGE ranging from 1 to 350 nM.

RAGE (Homo sapiens, UniProt Q15109), sequence (Q15109 23-404): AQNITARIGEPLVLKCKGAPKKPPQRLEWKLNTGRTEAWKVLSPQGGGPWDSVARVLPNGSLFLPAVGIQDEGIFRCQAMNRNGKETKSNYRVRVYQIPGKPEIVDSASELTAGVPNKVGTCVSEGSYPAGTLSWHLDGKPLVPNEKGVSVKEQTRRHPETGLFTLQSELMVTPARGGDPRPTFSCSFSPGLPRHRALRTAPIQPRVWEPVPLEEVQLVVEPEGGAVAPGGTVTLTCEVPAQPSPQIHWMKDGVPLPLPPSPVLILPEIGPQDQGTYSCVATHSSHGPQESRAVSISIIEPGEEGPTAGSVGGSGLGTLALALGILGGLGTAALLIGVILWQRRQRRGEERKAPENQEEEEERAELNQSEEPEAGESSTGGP

Question: What does the source list for CCCN(CC(=O)N(CCC)CC(=O)N(CC(=O)N(CC(=O)N(CCC)CC(=O)N(CC(=O)N(CC(N)=O)Cc1ccccc1)Cc1ccccc1)Cc1ccccc1)Cc1ccccc1)C(=O)CNCCCCN [JPT1] (H-[Nlys][NPrGly][NPrGly][Nphe][Nphe][NPrGly][Nphe][Nphe]-NH2)?
Answer: upregulation in RAGE expression in the presence of LPS (RAGE [1]; peptoid 50, 10 or 2 μM with 2 ng/mL LPS, normalized to LPS alone): reduced in a dose-dependent manner; expression of RAGE, peptoid alone (RAGE [1]; peptoid alone (no LPS), relative to the control): does not provoke response or upregulation; LPS-induced production of IL-1β (IL-1β): significantly attenuates; LPS-induced production of IL-6 (IL-6): significantly attenuates; Kd (RAGE [2]): 0.0788 µM
